Test results: patent US20200392239A1, “USE OF A MULTIMERIC ANTI-DR5 BINDING MOLECULE IN COMBINATION WITH A CHEMOTHERAPEUTIC AGENT FOR TREATING CANCER” (IGM Biosciences, Inc., priority 2018, published 2020)

Experiments:
[1] = reason for not progressing in clinical development; cited from earlier work
[2] = tested on: HCT15 tumor cells; test: HCT15 tumor model in athymic nude mice (IgG resistant colon tumor model); type: in vivo; settings: 3 mg/kg IgM 5 times daily i.v.; compared with 3 mg/kg anti-DR5 IgG and 80 mg/kg Irinotecan
Method: Combination therapy with an anti-DR5 IgM antibody and standard of care Irinotecan was assessed in an HCT15 tumor model as follows.
In the first experiment, anti-DR5 IgG, anti-DR5 IgM, and Irinotecan monotherapies were compared. Athymic nude mice were subcutaneously implanted with 1×10^7 HCT15 tumor cells.
When the tumors reached 150-200 mm^3, the animals were dosed intravenously with either vehicle 5 times daily, 3 mg/kg of anti-DR5 IgM 5 times daily, 80 mg/kg of Irinotecan (Sigma I1406) 3 times within the first week, or the combined anti-DR5 IgM and Irinotecan dosing regimens.

**Q.** With `CC1(C)CCC(c2ccc(Cl)cc2)=C(CN2CCN(c3ccc(C(=O)NS(=O)(=O)c4ccc(N[C@H](CCN5CCOCC5)CSc5ccccc5)c(S(=O)(=O)C(F)(F)F)c4)cc3)CC2)C1` [ABT-263, 4-(4-{[2-(4-Chlorophenyl)-5,5-dimethyl-1-cyclohexen-1-yl]methyl}-1-piperazinyl)-N-[(4-{[(2R)-4-(4-morpholinyl)-1-(phenylsulfany)-2-butanyl]amino}-3-[(trifluoromethyl)sulfonyl]phenyl)sulfonyl]benzamide] as the molecule, how does the side effects [1] read?
**A.** The side effects was “dose-limiting side effects”.

**Q.** Which bioavailability [1] does the source give for `CN(C)CC[C@H](CSc1ccccc1)Nc1ccc(S(=O)(=O)NC(=O)c2ccc(N3CCN(Cc4ccccc4-c4ccc(Cl)cc4)CC3)cc2)cc1[N+](=O)[O-]` [ABT-737, 4-{4-[(4′-Chloro-2-biphenylyl)methyl]-1-piperazinyl}-N-[(4-{[(2R)-4-(dimethylamino)-1-(phenylsulfanyl)-2-butanyl]amino}-3-nitrophenyl)sulfonyl]benzamide] here?
**A.** Its bioavailability is “low”.

**Q.** And the solubility [1]?
**A.** Its solubility is “low”.

B1: anti-DR5 IgM Mab #2: anti-DR5 IgM comprising VH and VL SEQ ID NO: 5 and SEQ ID NO: 6, constructed as in US 2018-0009897 (antibody, V domains shown)
VH: QVQLQESGPGLVKPSQTLSLTCTVSGGSISSGDYFWSWIRQLPGKGLECIGHIHNSGTTYYNPSLKSRVTISVDTSKKQFSLRLSSVTAADTAVYYCARDRGGDYYYGMDVWGQGTTVTVSS
VL: EIVLTQSPGTLSLSPGERATLSCRASQGISRSYLAWYQQKPGQAPSLLIYGASSRATGIPDRFSGSGSGTDFTLTISRLEPEDFAVYYCQQFGSSPWTFGQGTKVEIK
modifications: IgM constant regions
**Q.** For B1, which “efficacy of monotherapies (tumor volume, overall survival)” value [2] is on record?
**A.** Its value is “most effective”.
